US11578074B2, “Nitrogenous heterocyclic compound, preparation method, intermediate, composition, and application” (SHANGHAI PHARMACEUTICALS HOLDING CO., LTD., priority 2017, dated 2023)
Like-named read-outs stand apart in the source and are kept apart here.

How the values were obtained:
[1] = target: T1, ErbB2 kinase (Homo sapiens, UniProt P04626); experiment: EGFR/ErbB2 enzymatic experiment (HTRF kinEASE-TK), ErbB2; assay type: biochemical; conditions: ErbB2 kinase 0.06 ng/μL, ATP 4 μM; read-out: Kinase IC50 (nM) in vitro ErbB2
T1 construct: The final concentration of ErbB2 kinase was 0.06 ng/μL
Procedure: (§1) EGFR/ErbB2 Enzymatic Experiment
(§2) Firstly, 1× reaction buffer required for the kinase was prepared, then 5× Enzymatic buffer (HEPES 20 mM pH 7.0, NaN3 0.1%, BSA 0.05%, sodium orthovanadate 0.5 mM) was diluted in HTRF kinEASE-TK kit by 1 time with deionized water, and 50 nM Supplement Enzymatic buffer (SEB REAGENT), 1 mM MnCl2, 5 mM MfCl2, 1 mM DTT were added. Secondly, 5× compound was prepared, and 10 mM test compound storage solution was diluted in multiple steps with DMSO in a 96-well compound plate to prepare 100× compound as an initial concentration, which was then used as the first concentration to carry out a 3-fold gradient dilution with DMSO to obtain a total of 10 concentrations. Then 1 μL of gradient diluent was added to 19 μL of 1× reaction buffer to prepare 5× compound for later use. Then 2 μL of 5× compound was transferred from the 96-well plate into a 384-well plate. To the compound-free control wells was added 2 μL of the following liquid: 19 μL of 1× reaction buffer with addition of 1 μL of DMSO. To the blank control well was added 2 μL of 250 mM EDTA. […] In the fourth step of reaction termination, HTRF Detection buffer was used to prepare a mixture of 2×TK Antibody-EU (K) and Sa-XL665, and the amount of TK Antibody-EU (K) was 5 μL per well. After the enzyme reaction was carried out for 30 minutes, 10 μL of the above liquid was added to a 384-well plate, and the reaction was carried out at room temperature for 1 hour. […] RFU665 nM and RFU620 nM were measured, and RFU665 nM/RFU620 nM×10000 was used as final data for analysis.

[2] = target: EGFR kinase (Homo sapiens, UniProt P00533); experiment: EGFR/ErbB2 enzymatic experiment (HTRF kinEASE-TK), EGFR; assay type: biochemical; conditions: EGFR kinase 0.06 units/μL, ATP 1.65 μM; read-out: Kinase IC50 (nM) in vitro EGFR
Procedure: as §1, §2

[3] = tested on: N87 (human gastric cancer cell NCI-N87); experiment: In vitro proliferation inhibition assay of cell lines (CellTiter-Glo), N87; assay type: cell-based; conditions: N87 cells, 72 hours
Procedure: (§3) In Vitro Proliferation Inhibition Assay of Cell Lines
(§4) 1. Cell culture and inoculation: on the first day of the experiment, normal cultured cells were taken, and in the exponential growth state, after digestion and dispersion, the cell density was then adjusted to 8.8×10^4 cells/mL for BT-474, and 6.6×10^4 cells/mL for N87, and 90 μL of which were inoculated to each well of a 96-well cell culture plate; after the inoculation was completed, the microplate was cultured under the conditions of 37° C. and 5% CO2 overnight. 2. Dosing to the cells: on the second day of the experiment, the microplate was taken out from the incubator, and 10 μL of 10× compound was added to each well of the microplate, setting 2 duplicate wells for each drug concentration and 9 dosing concentrations for each compound. According to different cell lines, the initial concentration of each compound was different. Upon completion of addition, the microplate was placed under the conditions of 37° C. and 5% CO2 for 72 hours. 3. Data acquisition: the microplate was taken out from the incubator and was allowed to equilibrate at room temperature for 30 minutes. 100 μL of CellTiter-Glo® Luminescent Cell Viability Assay reaction solution which had been equilibrated at room temperature was added to each well, and the reaction solution was shaken at 1300 rpm for 2 minutes at room temperature. After that, the microplate was placed in HERAEUS Multifuge X1R centrifuge, centrifuged at 2000 rpm for 1 minute, and allowed to equilibrate at room temperature for 10 minutes. The fluorescence signal value was measured on EnVision™.

[4] = tested on: BT-474 (human breast cancer cell); experiment: In vitro proliferation inhibition assay of cell lines (CellTiter-Glo), BT-474; assay type: cell-based; conditions: BT-474 cells, 72 hours
Procedure: as §3
as §4, with “Cell culture and inoculation: on the first day of the experiment, normal cultured cells were taken, and in the exponential growth state, after digestion and dispersion, the cell density was then adjusted to 8.8×10^4 cells/mL for BT-474, and 6.6×10^4 cells/mL for N87, and 90 μL of which were inoculated to each well of a 96-well cell culture plate; after the inoculation was completed, the microplate was cultured under the conditions of 37° C. and 5% CO2 overnight.” left out

[5] = target: T2, CYP3A4 (Homo sapiens, UniProt P08684); experiment: Direct inhibition (DI) of CYP3A4 in human liver microsomes; assay type: in vitro ADME; conditions: human liver microsomes 0.2 mg/mL, 10 μM compound
T2 construct: A system of 100 μL human liver microsomes; from tissue; host or cells: human liver microsomes
Procedure: (§5) Study on Direct Inhibition (DI) of CYP3A4, CYP2D6, CYP2C9, CYP2C19, CYP1A2
(§6) A system of 100 μL human liver microsomes (final concentration: 0.2 mg/mL) was used for direct inhibition under warm incubation. The system contained NADPH (final concentration: 1 mM), 10 μM compound, a positive inhibitor cocktail (Ketoconazole 10 μM, Quinidine: 10 μM, Sulfaphenazole: 100 μM, Naphthoflavone: 10 μM, Tranylcypromene 1000 μM), a negative control 10 μM DMSO and mixed probe substrates (Midazolam 10 μM, Testosterone 100 μM, Dextromethophan 10 μM, Diclofenac 20 μM, Phenetin 100 μM, Mephenytoin 100 μM). The reaction was terminated after incubation for 20 minutes. The relative activity of the enzymes was calculated by measuring the relative production of metabolites.

[6] = target: T3, CYP2D6 (Homo sapiens, UniProt P10635); experiment: Direct inhibition (DI) of CYP2D6 in human liver microsomes; assay type: in vitro ADME; conditions: probe Dextromethorphan, human liver microsomes 0.2 mg/mL, 10 μM compound, read-out: Direct inhibition (DI) 2D6 (Dextromethorphan)
T3 construct: A system of 100 μL human liver microsomes; from tissue; host or cells: human liver microsomes
Procedure: as §5, §6

[7] = target: T4, CYP2C9 (Homo sapiens, UniProt P11712); experiment: Direct inhibition (DI) of CYP2C9 in human liver microsomes; assay type: in vitro ADME; conditions: probe Diclofenac, human liver microsomes 0.2 mg/mL, 10 μM compound, read-out: Direct inhibition (DI) 2C9 (Diclofenac)
T4 construct: A system of 100 μL human liver microsomes; from tissue; host or cells: human liver microsomes
Procedure: as §5, §6

[8] = target: T5, CYP1A2 (Homo sapiens, UniProt P05177); experiment: Direct inhibition (DI) of CYP1A2 in human liver microsomes; assay type: in vitro ADME; conditions: probe Phenacetin, human liver microsomes 0.2 mg/mL, 10 μM compound, read-out: Direct inhibition (DI) 1A2 (Phenacetin)
T5 construct: A system of 100 μL human liver microsomes; from tissue; host or cells: human liver microsomes
T5 sequence (P05177 1-516): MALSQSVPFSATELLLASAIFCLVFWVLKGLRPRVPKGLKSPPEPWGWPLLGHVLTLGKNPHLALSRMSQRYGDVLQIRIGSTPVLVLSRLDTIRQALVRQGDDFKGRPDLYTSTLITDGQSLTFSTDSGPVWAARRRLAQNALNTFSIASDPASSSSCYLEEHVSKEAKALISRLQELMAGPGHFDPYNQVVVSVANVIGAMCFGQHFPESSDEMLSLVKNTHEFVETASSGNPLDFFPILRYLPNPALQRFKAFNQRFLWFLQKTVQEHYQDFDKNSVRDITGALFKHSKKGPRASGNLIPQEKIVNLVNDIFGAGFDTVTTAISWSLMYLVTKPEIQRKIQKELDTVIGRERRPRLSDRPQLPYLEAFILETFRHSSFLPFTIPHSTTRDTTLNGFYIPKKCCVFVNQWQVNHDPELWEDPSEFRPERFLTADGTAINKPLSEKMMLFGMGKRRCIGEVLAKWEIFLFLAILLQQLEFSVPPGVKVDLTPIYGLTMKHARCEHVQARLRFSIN
Procedure: as §5, §6

[9] = target: T6, CYP2C19 (Homo sapiens, UniProt P33261); experiment: Direct inhibition (DI) of CYP2C19 in human liver microsomes; assay type: in vitro ADME; conditions: probe Mephenytoin, human liver microsomes 0.2 mg/mL, 10 μM compound, read-out: Direct inhibition (DI) 2C19 (Mephenytoin)
T6 construct: A system of 100 μL human liver microsomes; from tissue; host or cells: human liver microsomes
Procedure: as §5, §6

[10] = probe Midazolam, read-out: Direct inhibition (DI) 3A4 (Midazolam)
[11] = probe Testosterone, read-out: Direct inhibition (DI) 3A4 (testosterone)

T1 sequence (P04626 23-1255): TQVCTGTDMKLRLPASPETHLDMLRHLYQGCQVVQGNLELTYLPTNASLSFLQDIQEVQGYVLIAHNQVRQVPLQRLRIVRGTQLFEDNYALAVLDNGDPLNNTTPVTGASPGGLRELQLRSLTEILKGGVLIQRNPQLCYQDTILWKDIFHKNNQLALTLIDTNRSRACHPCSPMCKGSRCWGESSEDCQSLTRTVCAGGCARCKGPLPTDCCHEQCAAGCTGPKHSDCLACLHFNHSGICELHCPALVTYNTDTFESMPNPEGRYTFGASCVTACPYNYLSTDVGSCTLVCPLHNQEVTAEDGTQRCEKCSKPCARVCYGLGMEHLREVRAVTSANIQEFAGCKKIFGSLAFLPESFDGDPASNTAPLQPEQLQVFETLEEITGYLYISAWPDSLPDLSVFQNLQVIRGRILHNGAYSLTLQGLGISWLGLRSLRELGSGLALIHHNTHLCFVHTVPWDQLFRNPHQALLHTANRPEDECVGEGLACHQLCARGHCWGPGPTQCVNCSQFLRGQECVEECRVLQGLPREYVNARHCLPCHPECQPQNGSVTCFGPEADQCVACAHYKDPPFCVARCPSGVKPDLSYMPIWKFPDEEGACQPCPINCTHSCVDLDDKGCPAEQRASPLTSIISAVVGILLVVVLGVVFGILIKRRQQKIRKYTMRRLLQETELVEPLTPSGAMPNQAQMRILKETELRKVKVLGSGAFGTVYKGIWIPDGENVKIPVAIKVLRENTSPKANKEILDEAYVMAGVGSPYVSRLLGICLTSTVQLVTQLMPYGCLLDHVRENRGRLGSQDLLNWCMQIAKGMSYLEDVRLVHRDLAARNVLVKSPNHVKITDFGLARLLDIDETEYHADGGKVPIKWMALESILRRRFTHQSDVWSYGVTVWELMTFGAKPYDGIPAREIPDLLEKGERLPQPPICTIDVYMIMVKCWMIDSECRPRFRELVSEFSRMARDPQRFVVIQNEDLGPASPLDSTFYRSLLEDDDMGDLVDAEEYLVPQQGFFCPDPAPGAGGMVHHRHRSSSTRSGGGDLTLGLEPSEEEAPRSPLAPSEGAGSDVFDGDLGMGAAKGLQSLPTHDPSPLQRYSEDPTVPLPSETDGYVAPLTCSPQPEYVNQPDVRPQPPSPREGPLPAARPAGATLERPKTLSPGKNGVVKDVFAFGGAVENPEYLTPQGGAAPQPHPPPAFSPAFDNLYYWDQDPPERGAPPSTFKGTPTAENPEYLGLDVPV
T6 sequence (P33261 whole entry): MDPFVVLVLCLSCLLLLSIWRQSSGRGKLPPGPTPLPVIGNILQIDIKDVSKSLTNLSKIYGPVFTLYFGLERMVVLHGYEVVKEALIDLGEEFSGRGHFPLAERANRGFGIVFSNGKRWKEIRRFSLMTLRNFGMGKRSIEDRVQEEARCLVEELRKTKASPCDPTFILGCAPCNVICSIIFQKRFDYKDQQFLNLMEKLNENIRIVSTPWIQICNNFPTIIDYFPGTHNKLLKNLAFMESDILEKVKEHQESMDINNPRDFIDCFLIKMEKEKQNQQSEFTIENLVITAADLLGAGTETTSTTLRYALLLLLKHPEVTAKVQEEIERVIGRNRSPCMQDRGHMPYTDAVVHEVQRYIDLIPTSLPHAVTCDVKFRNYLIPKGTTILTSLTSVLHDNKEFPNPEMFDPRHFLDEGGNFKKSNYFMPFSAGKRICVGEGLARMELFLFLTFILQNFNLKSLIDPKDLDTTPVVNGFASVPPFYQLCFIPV
T2 sequence (P08684 whole entry): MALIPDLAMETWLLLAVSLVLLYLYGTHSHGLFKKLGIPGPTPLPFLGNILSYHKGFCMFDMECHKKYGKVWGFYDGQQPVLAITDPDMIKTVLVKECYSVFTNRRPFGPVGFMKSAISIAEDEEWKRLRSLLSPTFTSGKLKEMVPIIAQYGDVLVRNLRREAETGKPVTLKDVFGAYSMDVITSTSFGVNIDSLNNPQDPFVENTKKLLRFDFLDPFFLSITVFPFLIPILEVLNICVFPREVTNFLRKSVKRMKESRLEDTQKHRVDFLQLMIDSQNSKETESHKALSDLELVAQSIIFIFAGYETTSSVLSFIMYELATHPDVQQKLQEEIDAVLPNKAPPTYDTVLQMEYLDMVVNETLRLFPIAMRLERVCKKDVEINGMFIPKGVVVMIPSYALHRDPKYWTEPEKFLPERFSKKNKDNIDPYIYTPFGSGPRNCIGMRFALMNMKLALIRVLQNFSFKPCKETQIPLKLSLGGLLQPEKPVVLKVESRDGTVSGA
Sequence of EGFR kinase (P00533 25-1210): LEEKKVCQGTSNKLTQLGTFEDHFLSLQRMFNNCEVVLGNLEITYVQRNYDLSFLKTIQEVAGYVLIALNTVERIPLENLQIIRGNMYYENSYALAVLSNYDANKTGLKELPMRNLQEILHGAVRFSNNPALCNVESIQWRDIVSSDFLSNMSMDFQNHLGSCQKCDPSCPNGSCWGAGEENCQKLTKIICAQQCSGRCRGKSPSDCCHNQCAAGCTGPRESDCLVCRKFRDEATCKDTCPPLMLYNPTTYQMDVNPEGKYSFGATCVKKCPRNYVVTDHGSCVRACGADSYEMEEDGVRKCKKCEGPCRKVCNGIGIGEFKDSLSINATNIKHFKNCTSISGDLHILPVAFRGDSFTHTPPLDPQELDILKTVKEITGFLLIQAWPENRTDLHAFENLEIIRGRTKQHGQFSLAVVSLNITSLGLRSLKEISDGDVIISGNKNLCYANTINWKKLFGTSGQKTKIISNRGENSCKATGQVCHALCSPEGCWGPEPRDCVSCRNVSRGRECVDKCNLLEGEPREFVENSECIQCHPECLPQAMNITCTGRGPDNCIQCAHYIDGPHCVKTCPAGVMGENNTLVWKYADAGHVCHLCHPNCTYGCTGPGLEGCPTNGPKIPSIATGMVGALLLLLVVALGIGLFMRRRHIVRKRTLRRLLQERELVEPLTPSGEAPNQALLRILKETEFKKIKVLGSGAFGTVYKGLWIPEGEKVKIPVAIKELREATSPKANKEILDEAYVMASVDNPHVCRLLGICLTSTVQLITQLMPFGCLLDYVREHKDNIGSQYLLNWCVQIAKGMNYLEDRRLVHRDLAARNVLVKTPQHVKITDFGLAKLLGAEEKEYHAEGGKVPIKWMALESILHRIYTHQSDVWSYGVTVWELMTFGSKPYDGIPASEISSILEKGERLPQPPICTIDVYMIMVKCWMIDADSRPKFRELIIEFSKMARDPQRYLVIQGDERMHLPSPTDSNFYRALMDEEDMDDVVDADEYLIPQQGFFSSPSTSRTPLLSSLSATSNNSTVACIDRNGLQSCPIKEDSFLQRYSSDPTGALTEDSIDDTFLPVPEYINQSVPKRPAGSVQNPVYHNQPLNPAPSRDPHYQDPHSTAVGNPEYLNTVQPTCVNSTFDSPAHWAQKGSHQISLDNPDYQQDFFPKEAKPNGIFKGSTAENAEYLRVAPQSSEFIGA
T3 sequence (P10635 whole entry): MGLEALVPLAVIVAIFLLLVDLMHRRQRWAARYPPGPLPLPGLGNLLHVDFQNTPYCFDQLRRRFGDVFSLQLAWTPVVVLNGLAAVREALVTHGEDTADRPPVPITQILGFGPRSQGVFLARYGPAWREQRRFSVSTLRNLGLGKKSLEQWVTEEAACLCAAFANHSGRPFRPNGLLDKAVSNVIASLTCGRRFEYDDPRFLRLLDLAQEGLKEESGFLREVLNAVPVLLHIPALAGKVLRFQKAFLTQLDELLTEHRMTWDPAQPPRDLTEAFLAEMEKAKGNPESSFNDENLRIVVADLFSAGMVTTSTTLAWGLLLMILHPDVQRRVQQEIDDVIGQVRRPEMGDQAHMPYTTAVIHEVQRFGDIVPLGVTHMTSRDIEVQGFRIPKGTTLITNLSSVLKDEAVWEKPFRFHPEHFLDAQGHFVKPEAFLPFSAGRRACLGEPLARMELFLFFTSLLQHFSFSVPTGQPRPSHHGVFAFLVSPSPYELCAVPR
T4 sequence (P11712 whole entry): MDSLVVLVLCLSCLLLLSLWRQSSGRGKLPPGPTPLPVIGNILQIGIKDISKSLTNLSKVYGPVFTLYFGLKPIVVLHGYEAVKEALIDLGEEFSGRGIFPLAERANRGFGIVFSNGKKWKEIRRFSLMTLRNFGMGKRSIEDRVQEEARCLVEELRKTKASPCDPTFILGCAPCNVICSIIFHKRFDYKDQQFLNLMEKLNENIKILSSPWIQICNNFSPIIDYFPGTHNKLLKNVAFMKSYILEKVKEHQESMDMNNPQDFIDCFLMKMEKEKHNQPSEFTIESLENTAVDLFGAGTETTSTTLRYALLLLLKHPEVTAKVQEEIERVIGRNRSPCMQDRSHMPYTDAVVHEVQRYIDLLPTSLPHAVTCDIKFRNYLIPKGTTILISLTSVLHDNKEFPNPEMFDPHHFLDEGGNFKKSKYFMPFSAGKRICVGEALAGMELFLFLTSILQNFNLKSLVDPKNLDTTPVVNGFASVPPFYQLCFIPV

Row | SMILES | IC50 [1] [nM] | IC50 [2] [nM] | IC50 [3] [nM] | IC50 [4] [nM] | inhibition at 20 min, 10 µM [5, 10] [%] | inhibition at 20 min, 10 µM [5, 11] [%] | inhibition at 20 min, 10 µM [6] [%] | inhibition at 20 min, 10 µM [7] [%] | inhibition at 20 min, 10 µM [8] [%] | inhibition at 20 min, 10 µM [9] [%]
1 | CCOc1cc2ncnc(Nc3ccc(Oc4ccn5ncnc5c4)c(C)c3)c2cc1NC(=O)/C(F)=C\[C@@H]1CCCN1C | 4.6 | 50.9 | 3.1 | 5.9 | 14 | 32 | 38 | 21 | 23 | 43
2 | Cc1cc(Nc2ncnc3ccc(NC(=O)/C=C/[C@H]4CCCN4C)cc23)ccc1Oc1ccn2ccnc2c1 [Final product of Embodiment 11, (R,E)-N-(4-((4-(imidazo[1,2-a]pyridin-7-yloxy)-3-methylphenyl)amino)quinazolin-6-yl)-3-(1-methylpyrrolidin-2-yl)acrylamide] | 0.73 | 1.02 | 3.18 | 3.27 | 5 | 16 | 87 | 9 | 9 | 26
3 | CCOc1cc2ncnc(Nc3ccc(Oc4ccn5ncnc5c4)c(C)c3)c2cc1NC(=O)/C(F)=C\[C@H]1CCCN1C [Final product of Embodiment 44] | 2.4 | 32.6 | 1.2 | 2 | < 0 | 13 | 36 | 11 | 12 | 27
4 | C=CC(=O)N1CCC(c2ccc3ncnc(Nc4ccc(Oc5cc6nncn6cn5)c(C)c4)c3c2)CC1 [Final product of Embodiment 4, 1-(4-(4-((4-([1,2,4]triazolo[4,3-c]pyrimidin-7-yloxy)-3-methylphenyl)amino)quinazolin-6-yl)piperidin-1-yl)propan-2-en-1-one] | 6.09 | 168 | 5.75 | 4.79 | 49 | 56 | 7 | 48 | < 0 | 23
5 | C=CC(=O)N1CCCC(Nc2ccc3ncnc(Nc4ccc(Oc5cc6nncn6cn5)c(C)c4)c3c2)C1 (stereo in doubt) [Final product of Embodiment 8, (R)-1-(3-((4-((4-([1,2,4]triazolo[4,3-c]pyrimidin-7-yloxy)-3-methylphenyl)amino)quinazolin-6-yl)amino)piperidin-1-yl)propan-2-en-1-one] | 17.5 | 136 | 19.4 | 10.3 | 61 | 72 | 11 | 17 | 11 | 28

Other lines, results leading:

Row | IC50 [1] [nM] | IC50 [2] [nM] | IC50 [3] [nM] | IC50 [4] [nM] | inhibition at 20 min, 10 µM [5, 10] [%] | inhibition at 20 min, 10 µM [5, 11] [%] | inhibition at 20 min, 10 µM [6] [%] | inhibition at 20 min, 10 µM [7] [%] | inhibition at 20 min, 10 µM [8] [%] | inhibition at 20 min, 10 µM [9] [%] | SMILES
6 | 0.5 | 0.6 | 2.4 | 2.8 | 5 | 16 | 24 | 10 | < 0 | 45 | CCOc1cc2ncnc(Nc3ccc(Oc4ccn5ncnc5c4)c(C)c3)c2cc1NC(=O)/C=C/[C@H]1CCCN1 [Final product of Embodiment 38, (R,E)-N-(4-((4-([1,2,4]triazolo[1,5-a]pyridin-7-yloxy)-3-methylphenyl)amino)-7-ethoxyquinazolin-6-yl)-3-(pyrrolidin-2-yl)acrylamide]
7 | 0.83 | 2.52 | 3.55 | 5.23 | < 0 | 5 | 85 | 19 | 2 | 28 | CN1CCC[C@@H]1/C=C/C(=O)Nc1ccc2ncnc(Nc3ccc(Oc4ccn5ncnc5c4)c(Cl)c3)c2c1 [Final product of Embodiment 26, (R,E)-N-(4-((4-([1,2,4]triazolo[1,5-a]pyridin-7-yloxy)-3-chlorophenyl)amino)quinazolin-6-yl)-3-(1-methylpyrrolidin-2-yl)acrylamide]
